In data set [1] the test system is MDA-MB-231. The data set can be described thus: Cytotoxicity against human MDA-MB-231 cells after 72 hrs by sulforhodamine B assay. The class given is functional, cell-based. As to conditions: MDA-MB-231, 72 h.
The next data set concerns A549. The data set can be described thus: Cytotoxicity against human A549 cells after 72 hrs by sulforhodamine B assay. The class given is functional, cell-based. The conditions noted are these: A549, 72 h.
A further data set relates to HeLa. As to the kind of experiment: Cytotoxicity against human HeLa cells after 72 hrs by sulforhodamine B assay. The class given is functional, cell-based.
For data set [2], the target named is T1, DNA topoisomerase (Bos taurus) (UniProt A0JN73).
T1 sequence (whole entry): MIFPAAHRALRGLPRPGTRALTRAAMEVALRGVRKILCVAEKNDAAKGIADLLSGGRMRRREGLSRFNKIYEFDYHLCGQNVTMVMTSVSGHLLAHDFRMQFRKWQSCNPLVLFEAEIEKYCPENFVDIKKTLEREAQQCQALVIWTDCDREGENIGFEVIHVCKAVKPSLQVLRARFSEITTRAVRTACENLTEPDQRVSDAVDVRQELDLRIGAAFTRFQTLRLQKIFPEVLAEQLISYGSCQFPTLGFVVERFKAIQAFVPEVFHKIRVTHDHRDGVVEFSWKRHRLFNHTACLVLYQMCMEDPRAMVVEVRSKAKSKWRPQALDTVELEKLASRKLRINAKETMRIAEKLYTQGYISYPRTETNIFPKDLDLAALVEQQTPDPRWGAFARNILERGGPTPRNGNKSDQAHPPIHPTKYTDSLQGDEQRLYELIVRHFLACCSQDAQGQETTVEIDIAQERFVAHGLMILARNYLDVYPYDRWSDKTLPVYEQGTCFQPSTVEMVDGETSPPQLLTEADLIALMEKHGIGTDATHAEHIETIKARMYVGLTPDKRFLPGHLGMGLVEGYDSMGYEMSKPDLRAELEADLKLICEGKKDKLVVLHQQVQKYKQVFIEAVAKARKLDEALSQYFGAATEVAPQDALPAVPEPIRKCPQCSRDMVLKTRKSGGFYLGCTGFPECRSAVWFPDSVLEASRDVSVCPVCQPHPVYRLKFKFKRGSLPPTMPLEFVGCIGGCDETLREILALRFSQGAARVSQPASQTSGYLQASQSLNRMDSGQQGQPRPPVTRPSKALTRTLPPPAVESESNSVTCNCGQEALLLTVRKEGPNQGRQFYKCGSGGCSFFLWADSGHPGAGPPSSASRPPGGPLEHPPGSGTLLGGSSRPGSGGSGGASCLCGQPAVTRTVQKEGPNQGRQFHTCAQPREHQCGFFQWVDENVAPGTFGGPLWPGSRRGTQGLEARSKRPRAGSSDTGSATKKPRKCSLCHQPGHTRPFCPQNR
As to the kind of experiment: Inhibition of calf thymus DNA topoisomerase 1 assessed as reduction in pBR322 DNA relaxation at 100 uM incubated for 30 mins by DNA gel electrophoresis.

Data set [3] has as its target DNA topoisomerase 2-alpha (Homo sapiens) (UniProt P11388). The data set can be described thus: Inhibition of human recombinant topoisomerase 2alpha assessed as reduction in pBR322 DNA relaxation at 100 uM incubated for 30 mins by DNA gel electrophoresis.
Data set [4] has the same target. As to the kind of experiment: Inhibition of human recombinant topoisomerase 2alpha assessed as reduction in kDNA decatenation at 100 uM incubated for 30 mins by DNA gel electrophoresis.
For data set [5], the system named is MDA-MB-231. The data set can be described thus: Increase in histone H3 Ser10 phosphorylation in human MDA-MB-231 cells at 10 uM after 24 hrs by Western blot method. It counts as functional, cell-based.
Data set [6] relates to MDA-MB-231. As to the kind of experiment: Induction of DNA damage in human MDA-MB-231 cells assessed as increase in ATM S1981 phosphorylation at 10 uM after 24 hrs by Western blot method. The class given is functional, cell-based.
Data set [7] concerns MDA-MB-231. As to the kind of experiment: Antitumor activity against human MDA-MB-231 cells xenografted in BALB/c-nu mouse assessed as reduction in tumor weight at 20 mg/kg, iv dosed every other day for 15 days. The class given is functional. The conditions noted are these: MDA-MB-231, 360 h.
In a further data set the test system is Mus musculus. The data set can be described thus: Toxicity in nude BALB/c mouse xenografted with human MDA-MB-231 cells assessed as reduction in body weight at 20 mg/kg, iv dosed every other day for 15 days (reference value: 24.2 g). It counts as organism-based. The arrangement: dose 20 mg/kg, route intravenous. The conditions noted are these: in vivo, 360 h.

In data set [8] the target is DNA topoisomerase 2-alpha (Homo sapiens) (UniProt P11388). The conditions noted are these: 100 uM.
Sequence of DNA topoisomerase 2-alpha (Homo sapiens) (P11388 whole entry): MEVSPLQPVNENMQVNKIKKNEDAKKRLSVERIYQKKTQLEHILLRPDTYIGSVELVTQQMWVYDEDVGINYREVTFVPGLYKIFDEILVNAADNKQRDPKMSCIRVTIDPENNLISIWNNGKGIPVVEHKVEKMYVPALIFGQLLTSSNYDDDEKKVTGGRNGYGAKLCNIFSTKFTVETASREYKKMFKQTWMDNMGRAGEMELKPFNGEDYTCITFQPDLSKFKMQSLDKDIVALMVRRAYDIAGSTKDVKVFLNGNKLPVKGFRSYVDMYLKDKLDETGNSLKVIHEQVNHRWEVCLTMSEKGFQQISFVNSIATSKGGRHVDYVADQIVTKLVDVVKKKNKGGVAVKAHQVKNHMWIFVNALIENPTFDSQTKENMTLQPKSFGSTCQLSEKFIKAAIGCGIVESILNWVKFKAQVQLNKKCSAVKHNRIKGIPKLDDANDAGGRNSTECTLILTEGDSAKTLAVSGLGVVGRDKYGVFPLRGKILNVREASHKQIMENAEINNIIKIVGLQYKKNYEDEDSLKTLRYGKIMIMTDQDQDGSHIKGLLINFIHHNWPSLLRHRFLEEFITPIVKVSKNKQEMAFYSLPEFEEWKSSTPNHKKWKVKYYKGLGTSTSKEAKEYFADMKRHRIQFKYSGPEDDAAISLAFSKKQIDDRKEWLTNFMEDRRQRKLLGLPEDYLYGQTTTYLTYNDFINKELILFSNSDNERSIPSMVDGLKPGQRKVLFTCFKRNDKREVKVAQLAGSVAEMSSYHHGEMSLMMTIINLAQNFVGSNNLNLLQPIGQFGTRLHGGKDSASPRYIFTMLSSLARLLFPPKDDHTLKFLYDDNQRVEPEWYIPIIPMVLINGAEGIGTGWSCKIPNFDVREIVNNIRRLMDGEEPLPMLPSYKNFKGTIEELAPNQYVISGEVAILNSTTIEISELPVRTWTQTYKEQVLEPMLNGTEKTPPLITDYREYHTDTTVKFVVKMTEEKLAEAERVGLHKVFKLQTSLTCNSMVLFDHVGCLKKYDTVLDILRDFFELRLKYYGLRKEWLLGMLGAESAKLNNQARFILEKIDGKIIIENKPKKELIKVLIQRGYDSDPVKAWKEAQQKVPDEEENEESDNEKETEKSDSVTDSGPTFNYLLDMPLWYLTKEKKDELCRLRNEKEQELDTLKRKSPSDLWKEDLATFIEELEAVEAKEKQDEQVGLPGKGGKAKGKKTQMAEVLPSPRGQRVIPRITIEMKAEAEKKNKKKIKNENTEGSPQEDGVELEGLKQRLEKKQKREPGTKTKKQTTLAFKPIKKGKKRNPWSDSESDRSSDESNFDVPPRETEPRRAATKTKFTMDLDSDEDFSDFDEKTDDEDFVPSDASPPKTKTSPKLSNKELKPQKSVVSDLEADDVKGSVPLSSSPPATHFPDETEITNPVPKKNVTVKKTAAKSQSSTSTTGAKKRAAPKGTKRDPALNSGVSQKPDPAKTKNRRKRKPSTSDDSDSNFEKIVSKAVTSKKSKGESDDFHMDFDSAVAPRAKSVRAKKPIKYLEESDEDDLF
Description: Inhibition of human recombinant topoisomerase 2alpha assessed as increase in linear DNA using circular supercoiled plasmid DNA substrate at 100 uM incubated for 30 mins by ethidium bromide staining based DNA gel electrophoresis
The test system of the next data set is Nucleic Acid. As to the kind of experiment: Induction of DNA intercalation in Escherichia coli pBR322 DNA at 100 uM by DNA gel electrophoresis. It counts as nucleic-acid assay.

The source made the active and inactive calls. No cut-off for these calls is given here.

In the case of `COc1cc(-c2ccc3cc(O)ccc3c2)cc(C=O)c1O`, the IC50 with MDA-MB-231 [1] is 0.5 µM; with A549, 1.1 µM; with HeLa, 1.8 µM. Further, the inhibition result in [2], in data set [3] and in data set [4] was “Active” each time.
As to `COc1cc([C@@H]2c3cc4c(cc3[C@@H](O[C@@H]3O[C@@H]5CO[C@@H](C)O[C@H]5[C@H](O)[C@H]3O)[C@H]3COC(=O)[C@H]23)OCO4)cc(OC)c1O` [ETOPOSIDE], the concentration for half-maximal inhibition (IC50) in the data set on MDA-MB-231 [1] worked out at 3.67 µM; in the data set on A549 it was 13.8 µM; with HeLa, 4.36 µM. Also, the inhibition entry in data set [3] and in data set [8] was “Active” in each case. Besides, in the data set on MDA-MB-231 [5], the outcome was inactive. For the same compound, the result in the data set with MDA-MB-231 [6] was Active. Besides, the inhibition in vivo at 20 mg/kg in the data set with MDA-MB-231 [7] was determined as 69%. In the data set on Mus musculus, the Activity was found to be 20.1 g.
For the compound `COC(=O)c1ccc(C)c(-c2ccc3cc(OC)ccc3c2)c1`, the IC50 with MDA-MB-231 [1] is greater than 800 µM; in the data set with A549, greater than 20 µM; with HeLa, 20 µM. Also, the inhibition entry in data set [4] is “Active”.
Take `O=[N+]([O-])c1ccc(-c2ccc3cc(O)ccc3c2)cc1C(F)(F)F`: the results for the concentration for half-maximal inhibition (IC50) with MDA-MB-231 [1], in the data set with A549 and in the data set with HeLa were 4.5 µM, 3.5 µM and 1.9 µM, respectively. Also, the inhibition result in [3] and in data set [4] was “Active” each time.
`OCCc1cc(-c2ccc3cc(O)ccc3c2)ccc1O`: the IC50 in the data set with MDA-MB-231 [1] was 0.4 µM; with A549, 0.6 µM; in the data set with HeLa, 0.6 µM. In addition, the inhibition entry in data set [2] and in data set [3] was “inactive” in each case. Further, the inhibition result in data set [4] was “Active”.
With `COC(=O)c1ccc(O)c(-c2ccc3cc(O)ccc3c2)c1`, the half-maximal inhibitory concentration (IC50) stood at 7.6 µM in the data set with MDA-MB-231 [1], 11.6 µM with A549 and 2.2 µM with HeLa. Also, the inhibition entry in data set [3] was “Active”.
For `COC(=O)c1ccc(C)c(-c2ccc3cc(O)ccc3c2)c1`, the concentration for half-maximal inhibition (IC50) in the data set on MDA-MB-231 [1] was 0.5 µM; in the data set on A549, 5 µM; in the data set on HeLa, 1.2 µM. For the same compound, the inhibition entry in data set [3] and in data set [4] was “Active” throughout.
Take `Cc1cc(-c2ccc3cc(O)ccc3c2)ccc1N`: the IC50 came to 2.1 µM with MDA-MB-231 [1], 3.5 µM with A549 and 2.9 µM in the data set with HeLa. Moreover, the inhibition entry in data set [3] and in data set [4] was “Active” in each case.
For `COc1ccc2cc(-c3cc(C(C)=O)c(O)c([N+](=O)[O-])c3)ccc2c1`, the IC50 with MDA-MB-231 [1] was 19.8 µM; in the data set with A549, greater than 20 µM; in the data set with HeLa, greater than 20 µM. The inhibition entry in data set [4] was “Active”.
Turning to `CC[C@@]1(O)C(=O)OCc2c1cc1n(c2=O)Cc2cc3ccccc3nc2-1`, the inhibition entry in data set [2] is “Active”.
Turning to `CC(=O)c1cc(-c2ccc3cc(O)ccc3c2)cc([N+](=O)[O-])c1O`, the figures for the IC50 with MDA-MB-231 [1], in the data set with A549 and in the data set on HeLa were 1.4 µM, 4.2 µM and 2.1 µM, respectively. The inhibition entry in [2], in data set [3] and in [4] was “Active” each time.
Take `COc1cccc2c1C(=O)c1c(O)c3c(c(O)c1C2=O)C[C@@](O)(C(=O)CO)C[C@@H]3O[C@H]1C[C@H](N)[C@H](O)[C@H](C)O1`: the result in the data set with Nucleic Acid was Active.
As to `Oc1ccc2cc(-c3ccc(O)c(O)c3)ccc2c1`, the IC50 in the data set on MDA-MB-231 [1] was determined as 4.3 µM; with A549, 11.5 µM; with HeLa, 4.6 µM. Besides, the inhibition result in data set [3] and in data set [4] was “Active” in each case.
As to `COc1ccc2cc(-c3ccc(N)cc3)ccc2c1`, the IC50 is 168 µM in the data set with MDA-MB-231 [1], greater than 20 µM in the data set with A549 and greater than 20 µM in the data set on HeLa.
Consider `COc1ccc2cc(-c3ccc([N+](=O)[O-])c(C(F)(F)F)c3)ccc2c1`, for which the half-inhibitory concentration (IC50) in the data set with MDA-MB-231 [1] is 165 µM; in the data set on A549 it was greater than 20 µM; in the data set with HeLa it was greater than 20 µM.
Consider `O=Cc1cc(-c2ccc3cc(O)ccc3c2)ccc1O`, for which the 50% inhibitory concentration (IC50) in the data set on MDA-MB-231 [1] is 2.4 µM; in the data set with A549 it was 5 µM; in the data set on HeLa, 2.1 µM. The inhibition result in data set [2], in data set [3] and in [4] was “Active” each time.
With `OCc1cccc(-c2ccc3cc(O)ccc3c2)c1`, the results for the IC50 with MDA-MB-231 [1], in the data set on A549 and in the data set with HeLa were 5 µM, 9.1 µM and 3.2 µM, respectively.
The matching figures for `COC(=O)c1cc(-c2ccc3cc(OC)ccc3c2)ccc1O`: 82.2 µM, greater than 20 µM and greater than 20 µM.
The matching figures for `OCc1ccc(-c2ccc3cc(O)ccc3c2)cc1`: 29.5 µM, greater than 20 µM and 2.2 µM.
Take `O=Cc1ccc(O)c(-c2ccc3cc(O)ccc3c2)c1`: the IC50 in the data set on MDA-MB-231 [1] was 3.2 µM; in the data set with A549, 10.5 µM; in the data set with HeLa, 5 µM. For the same compound, the inhibition entry in data set [3] and in data set [4] was “Active” in each case.
For `COc1ccc2cc(-c3ccc(O)cc3)ccc2c1`, the IC50 in the data set on MDA-MB-231 [1] was greater than 800 µM; in the data set on A549, greater than 20 µM; with HeLa, greater than 20 µM.
Turning to `COc1ccc2cc(-c3ccc(OC)c(C=O)c3)ccc2c1`, the concentration for half-maximal inhibition (IC50) in the data set on MDA-MB-231 [1] is greater than 800 µM; with A549 it was greater than 20 µM; in the data set with HeLa, greater than 20 µM.
With `COc1ccc2cc(-c3ccc(N)c(C)c3)ccc2c1`, the figures for the IC50 in the data set on MDA-MB-231 [1], with A549 and with HeLa were greater than 800 µM, greater than 20 µM and greater than 20 µM, respectively.
Consider `Cc1ccc(C(=O)O)c(-c2ccc3cc(O)ccc3c2)c1`, for which the IC50 with MDA-MB-231 [1] is 94.3 µM; with A549, greater than 20 µM; in the data set with HeLa it was greater than 20 µM. Further, in data set [4], the inhibition entry was “Active”.
`COc1ccc2cc(-c3ccc(OC)c(OC)c3)ccc2c1`: the figures for the half-maximal inhibitory concentration (IC50) with MDA-MB-231 [1], in the data set on A549 and in the data set with HeLa were 112 µM, greater than 20 µM and greater than 20 µM, respectively.

These data come from ChEMBL document CHEMBL3351570, “Design and synthesis of 2-phenylnaphthalenoids as inhibitors of DNA topoisomeraseIIα and antitumor agents” (Eur J Med Chem, 2014).
